Assay results published in US9150510B2, “Amino acid derivative” (NIPPON ZOKI PHARMACEUTICAL CO., LTD., priority 2008, dated 2015).

Assays:
Format in all cases: in vivo
Chung model rat = assay: Analgesic efficacy test (2): Chung model rat, neuropathic pain model (allodynia, von Frey filament); settings: Table 13, Wistar male rats, L5 spinal nerve ligation, mean ± standard error
Experimental: An analgesic efficacy test was conducted using a Chung model rat, a neuropathic pain model. Using Wistar male rats after passing 9-week old as an experimental animal, a model rat was prepared in accordance with the method of Kim and Chung (Pain, 50, 355-363, 1992). Specifically, left L5 spinal nerves of rats were exposed under anesthetization with pentobarbital (35 mg/kg, intraperitoneal administration), and firmly ligated with 5-0 silk yarn at L5 dorsal root ganglion peripheral side. The animals were placed in a transparent acrylic cage of which bottom was wire netted The measurement of allodynia was carried out using von Frey filament (manufactured by North Coast Medical Inc.) and a 50% reaction threshold was calculated according to an up-down method, in accordance with methods of Chaplan et al. (J. Neurosci. Method, 53, 55-63, 1994) and Lee et al. (J. Neurophysiol., 81, 2226-2233, 1999). The 50% reaction thresholds were measured twice before injury of the spinal nerve, and those animals of which thresholds were outside the standard were removed from the operation of spinal nerve injury. On or after 14 days from the spinal nerve injury, a 50% reaction threshold was measured, and those showing thresholds of 1 g or more and less than 4 g were used as experimental animal. The group was constituted by 7 rats per group so that an average of a 50% reaction threshold for each group would be nearly even.
A solution or suspension prepared by dissolving or suspending a compound of the present invention in a 0.5% (w/v) aqueous CMC-Na solution was orally administered as a test substance in a single dose while, a 0.5% (w/v) aqueous CMC-Na solution was administered in the same manner to the control group for nerve injury. After 30 minutes from the administration, the measurement of allodynia was carried out, and a 50% reaction threshold (mean±standard error) was calculated. In the test for significance difference, Baltlett's test was carried out in the comparison between multiple groups of the group administered with test substance with the control group for nerve injury. In the case of homoscedasticity, Dunnett's multiple comparison test of parametrics, and in the case of heteroscedasticity, Dunnett's multiple comparison test of non-parametrics were used. In all cases, significance difference was considered to be found at P<0.05.

[1] = Test of blood kinetics in the rats; settings: rat, plasma, 2 mg/kg, fasted Wistar male rats, oral single dose of mixed solution of five compounds, each compound 2 mg/5 mL/kg, n=5, LC-MS; for AUC(0-inf): read-out: AUC0-∞ (area under the curve for concentration in blood, time 0 to infinite hours); for Cmax: read-out: Cmax (maximum concentration in plasma)
Experimental: Ten milligrams of a compound of the present invention was properly converted to a sodium salt with the same amount of sodium hydroxide, where necessary, and each was dissolved in 5 mL of water. Five compounds each among these aqueous solutions of the compounds of the present inventions were mixed, to prepare a mixed solution containing 0.4 mg/mL each of each compound. Six-week old Wistar SPF male rats that were fasted were orally administered with the mixed solution in a single dose using a gavage tube (each compound 2 mg/5 mL/kg, n=5). At time points of 0.25, 0.5, 1, 2, 4, and 8 hours after the administration, about 150 μL of blood was collected using a heparin-added capillary tube from veins of rat tails. The capillary tubes were centrifuged to collect the plasma. The plasma sample was deprotenized and the supernatant was diluted to prepare each of measurement sample solutions. The concentration of the compound of the present invention in each of measurement sample solutions was quantified using LC-MS, and Cmax (maximum concentration in plasma) and AUC (area under the curve for concentration in blood, time 0 to infinite (∞) hours) of the compounds of the present invention were calculated.

ddY-type mice = assay: Analgesic efficacy test (1): acetic acid writhing test (nociceptive pain model animal); settings: Mus musculus, 25 min, writhing number, male ddY mice, acetic acid i.p. 25 min after administration, mean ± standard error, read-out: Percent Suppression (%); for inhibition in vivo at 100 mg/kg: oral single dose 100 mg/kg; for inhibition in vivo at 10 mg/kg: oral single dose 10 mg/kg
From the text: A compound of the present invention was orally administered to mice, to carry out an analgesic efficacy test according to acetic acid writhing test (nociceptive pain model animal). As an experimental animal, 4-week old male ddY-type mice were previously bred, and thereafter 8 mice per one group were used in the experiment. A solution or suspension prepared by dissolving or suspending a compound of the present invention in a 0.5% (w/v) aqueous CMC-Na solution was orally administered as a test substance in a single dose. While, to a control group, a 0.5% (w/v) aqueous CMC-Na solution was administered in the same manner. After 25 minutes from administration, the mice were intraperitoneally administered with a 0.7% (v/v) acetic acid/physiological saline at the dose of 10 mL/kg. From 5 minutes thereafter, writhing number in a 10-minute period was counted, and a suppressive rate for each individual (mean±standard error) was calculated by the following formula: […]
In the test for significance difference, Baltlett's test was carried out in the comparison between multiple groups of the group administered with test substance with the control group. In the case of homoscedasticity, Dunnett's multiple comparison test of parametrics, and in the case of heteroscedasticity, Dunnett's multiple comparison test of non-parametrics were used. In addition, in the test of dose dependency, Jockheere-Terpstra's test was used. In all cases, significance difference was considered to be found at P<0.05.

| AUC(0-inf) [1] [ng·h/mL] | Cmax [1] [ng/mL] | Structure (SMILES) | 50% Reaction Threshold (g), Group Administered with Test Substance, 30 Min. After Administration (Chung model rat; oral single dose 10 mg/kg) [g] | inhibition in vivo at 100 mg/kg (ddY-type mice) [%] | 50% Reaction Threshold (g), Group Administered with Test Substance, 30 Min. After Administration (Chung model rat; oral single dose 1 mg/kg) [g] | inhibition in vivo at 10 mg/kg (ddY-type mice) [%] |
| --- | --- | --- | --- | --- | --- | --- |
| 10600 | 1700 | COc1ccccc1C=CC(=O)N[C@@H](Cc1c[nH]c2ccccc12)C(=O)O [Compound 11, N^α-[3-(2-Methoxyphenyl)acryloyl]-L-tryptophan] | 10.55 ± 1.50 | 60.9 ± 5.9 | – | – |
| 10200 | 3000 | O=C(N[C@@H](Cc1c[nH]c2ccccc12)C(=O)O)c1cc2ccccc2o1 [Compound 20, N^α-(Benzofuran-2-carbonyl)-L-tryptophan] | – | 41.6 ± 6 | 6.13 ± 0.75 | – |
| 238000 | 50600 | Cn1cc(C[C@H](NC(=O)C=Cc2ccccc2)C(=O)O)c2ccccc21 [Compound 29, 1-Methyl-N^α-(3-phenylacryloyl)-L-tryptophan] | 6.45 ± 1.39 | – | – | 56.8 ± 6.8 |
| – | – | N=C(N)NCCC[C@H](NC(=O)C=Cc1ccccc1F)C(=O)O [Compound 64, N^α-[3-(2-Fluorophenyl)acryloyl]-L-arginine] | – | – | 6.21 ± 1.04 | 50.6 ± 7.5 |
| – | – | O=C(N[C@@H](Cc1c[nH]c2ccccc12)C(=O)O)c1cc2ccccc2oc1=O [Compound 21, N^α-(Coumarin-3-carbonyl)-L-tryptophan] | – | – | 3.93 ± 0.16 | 38.3 ± 6.5 |
| 33900 | 4800 | O=C(C=Cc1ccc(F)cc1F)N[C@@H](Cc1c[nH]c2ccccc12)C(=O)O [Compound 14, N^α-[3-(2,4-Difluorophenyl)acryloyl]-L-tryptophan] | 9.38 ± 1.68 | – | – | 43.2 ± 10.9 |
| – | – | NC(=O)[C@H](Cc1c[nH]c2ccccc12)NC(=O)C=Cc1ccccc1F [Compound 23, N^α-[3-(2-Fluorophenyl)acryloyl]-L-tryptophanamide] | 9.37 ± 1.56 | 48.2 ± 11.5 | – | – |
| 11400 | 4000 | N#CC(=Cc1ccccc1F)C(=O)N[C@@H](Cc1c[nH]c2ccccc12)C(=O)O [Compound 22, N^α-[2-Cyano-3-(2-fluorophenyl)acryloyl]-L-tryptophan] | 11.34 ± 1.52 | – | – | 39.9 ± 8.6 |
| – | – | O=C(C=Cc1ccccc1O)N[C@@H](Cc1c[nH]c2ccccc12)C(=O)O [Compound 2, N^α-[3-(2-Hydroxyphenyl)acryloyl]-L-tryptophan] | 11.64 ± 1.81 | – | – | 41.8 ± 4.1 |
| 28700 | 4300 | O=C(C=Cc1cccc(F)c1)N[C@@H](Cc1c[nH]c2ccccc12)C(=O)O [Compound 4, N^α-[3-(3-Fluorophenyl)acryloyl]-L-tryptophan] | 10.73 ± 1.59 | 42.4 ± 8.3 | – | – |
| 21900 | 5000 | O=C(C=Cc1ccccc1)N[C@@H](Cc1c[nH]c2ccccc12)C(=O)O [Compound 8, N^α-(3-Phenylacryloyl)-L-tryptophan] | 8.39 ± 1.30 | – | – | 67.7 ± 10.3 |
| – | – | CSCC[C@H](NC(=O)C=Cc1ccccc1F)C(=O)O [Compound 67, N-[3-(2-Fluorophenyl)acryloyl]-L-methionine] | – | – | 4.94 ± 0.61 | 43.5 ± 6.9 |
| – | – | O=C(C=Cc1ccccc1C(F)(F)F)N[C@@H](Cc1c[nH]c2ccccc12)C(=O)O [Compound 10, N^α-[3-(2-Trifluoromethylphenyl)acryloyl]-L-tryptophan] | 6.73 ± 1.26 | – | – | 41.6 ± 9.6 |
| – | – | O=C(C=Cc1cc(C(F)(F)F)cc(C(F)(F)F)c1)N[C@@H](Cc1c[nH]c2ccccc12)C(=O)O [Compound 16, N^α-{3-[3,5-Bis(trifluoromethyl)phenyl]acryloyl}-L-tryptophan] | 8.38 ± 1.07 | 69 ± 4.9 | – | – |
| – | – | COc1ccc(C[C@H](NC(=O)C=Cc2ccccc2O)C(=O)O)cc1 [Compound 39, N-[3-(2-Hydroxyphenyl)acryloyl]-O^4-methyl-L-tyrosine] | 11.44 ± 1.70 | – | – | – |
| – | – | O=C(C=Cc1ccc(Oc2ccccc2)cc1)N[C@@H](Cc1c[nH]c2ccccc12)C(=O)O [Compound 18, N^α-[3-(4-Phenoxyphenyl)acryloyl]-L-tryptophan] | 11.73 ± 1.60 | – | – | 56.5 ± 4.2 |
| – | – | N#Cc1cccc(C=CC(=O)N[C@@H](Cc2c[nH]c3ccccc23)C(=O)O)c1 [Compound 17, N^α-[3-(3-Cyanophenyl)acryloyl]-L-tryptophan] | 12.99 ± 1.53 | – | – | 54.7 ± 6.8 |
| – | – | N#Cc1ccc(C=CC(=O)N[C@@H](Cc2c[nH]c3ccccc23)C(=O)O)cc1 [Compound 19, N^α-[3-(4-Cyanophenyl)acryloyl]-L-tryptophan] | – | 52.2 ± 6.1 | 5.16 ± 0.41 | – |
| 16500 | 3200 | Cn1cc(C[C@H](NC(=O)C=Cc2cccc(C#N)c2)C(=O)O)c2ccccc21 [Compound 34, N^α-[3-(3-Cyanophenyl)acryloyl]-1-methyl-L-tryptophan] | – | – | – | 45.2 ± 6.3 |
| 7000 | 3500 | COc1ccc(C[C@H](NC(=O)C=Cc2ccc(C#N)cc2)C(=O)O)cc1 [Compound 56, N-[3-(4-Cyanophenyl)acryloyl]-O^4-methyl-L-tyrosine] | – | 48.7 ± 10.1 | – | – |
| – | – | N#Cc1ccccc1C=CC(=O)N[C@@H](Cc1c[nH]c2ccccc12)C(=O)O [Compound 9, N^α-[3-(2-Cyanophenyl)acryloyl]-L-tryptophan] | – | – | 6.28 ± 0.42 | 41 ± 12.9 |
| 13400 | 3600 | Cn1cc(C[C@H](NC(=O)C=Cc2ccccc2C#N)C(=O)O)c2ccccc21 [Compound 30, N^α-[3-(2-Cyanophenyl)acryloyl]-1-methyl-L-tryptophan] | – | – | – | 35.8 ± 9.9 |
